Assay results from patent US20240254119A1 (THIRD HARMONIC BIO, INC., priority 2022, published 2024).
Like-named read-outs stand apart in the source and are kept apart here.

Assays:
Caco-2 cells = assay: Caco-2 permeability assay; format: in vitro ADME; conditions: for Caco-2: Papp A-B: Caco-2, apical to basolateral
Experimental: Exemplary compounds were tested for cell permeability in Caco-2, MDCKII-MDR1 and MDCKII-BCRP cell lines with efflux transporter engagement inferred from the efflux ratios determined. Procedures and results are described below. […] This feature of certain compounds is in part due to efflux transporter engagement. See, for instance, exemplary such compounds included in data tables below.
The transport buffer in the study was HBSS with 10.0 mM HEPES at pH 7.40±0.05. Test compound was tested at 2.00 μM bi-directionally in duplicate. Digoxin was tested at 10.0 μM bi-directionally in duplicate, while nadolol and metoprolol were tested at 2.00 μM in A to B direction in duplicate. Final DMSO concentration was adjusted to less than 1%. The plate was incubated for 2 hours in CO2 incubator at 37±1° C., with 5% CO2 at saturated humidity without shaking. And all samples after mixed with acetonitrile containing internal standard were centrifuged at 3200×g for 10 min. For nadolol and metoprolol, 200 μL supernatant solution was diluted with 600 μL ultra-pure water for LC-MS/MS analysis. For digoxin and test compounds, 200 μL supernatant solution was diluted with 200 μL ultra-pure water for LC-MS/MS analysis. Concentrations of test and control compounds in starting solution, donor solution, and receiver solution were quantified by LC-MS/MS methodologies, using peak area ratio of analyte/internal standard.
After transport assay, lucifer yellow rejection assay was applied to determine the Caco-2 cell monolayer integrity.
[…] And permeation of lucifer yellow through the monolayer was measured to evaluate the cellular integrity.
The apparent permeability coefficient Papp (cm/s) was calculated using the equation: Papp=(dCr/dt)×Vr/(A×C0), where dCr/dt is the cumulative concentration of compound in the receiver chamber as a function of time (μM/s); Vr is the solution volume in the receiver chamber (0.075 mL on the apical side, 0.25 mL on the basolateral side); A is the surface area for the transport, i.e. 0.0804 cm^2 for the area of the monolayer; C0 is the initial concentration in the donor chamber (μM).
The efflux ratio was calculated using the equation: Efflux Ratio=Papp (BA)/Papp(AB).
Percent recovery was calculated using the equation: % Solution Recovery=100×[(Vr×Cr)+(Vd×Cd)]/(Vd×C0), where Vd is the volume in the donor chambers (0.075 mL on the apical side, 0.25 mL on the basolateral side); Cd and Cr are the final concentrations of transport compound in donor and receiver chambers, respectively.

[1] = Three time point assay for plasma, brain and testes distribution after oral dosing; format: in vivo, rat; conditions: for Brain concentration / Kp brain/plasma / Kp testes/plasma / Plasma concentration / Testes concentration / concentration at 0.5 h / Kp at 0.5 h / concentration at 2 h / Kp at 2 h / concentration at 7 h / Kp at 7 h: rat, oral dosing; for concentration at 0.5 h / Kp at 0.5 h / concentration at 2 h / Kp at 2 h / concentration at 7 h / Kp at 7 h: male, SD, 10 mg/kg; for concentration at 0.5 h / Kp at 0.5 h: time point 0.5 h; for concentration at 7 h / Kp at 7 h: time point 7 h
Experimental: Exemplary compounds were tested for distribution in plasma, brain and testes tissue following oral dosing of the compounds in rats. Procedures and results are described below.
Male SD Rats were group-housed (up to four animals/sex/cage) in polysulfone cages with certified aspen wood bedding during acclimation and study period.
Certified rodent diet and water was provided to all animals ad libitum, unless fasting for study procedures.
Appropriate amount of test article was accurately weighed and mixed with an appropriate volume of vehicle to get a clear solution or a uniform suspension; vortexing or sonication in water bath may also be need. Animals were dosed within four hours after the formulation is prepared.
For PO dosing, the dose formulation was administered via oral gavage following facility SOPs. The dose volume was determined by the animals' body weight collected on the morning of dosing day. The dose was 10 mg/kg.
Each blood collection (about 1 mL per time point at one or more of 0.5 h, 2 h, 3 h, 5.3 h, and 7 h) was performed from jugular vein or other suitable site of each animal into pre-chilled commercial EDTA-K2 tubes and placed on wet ice until centrifugation.
Blood samples were processed for plasma by centrifugation at approximately 4° C., 3,200 g for 10 min. Plasma was collected respectively and transferred into pre-labeled 96 well plate or polypropylene tubes, quick frozen over dry ice and kept at −60° C. or lower until LC-MS/MS analysis.
Rat brain was perfused with PBS to remove blood before harvest.
After perfusion, brain and testis were homogenized using homogenizing buffer (15 mM PBS (pH7.4):MeOH=2:1) at the ratio of 1:9 (1 g tissue with 9 mL buffer, the dilution ratio is 10). The brain homogenate was kept at −60° C. or lower until LC-MS/MS analysis. General sample processing procedure (brain homogenate & testis homogenate) using 96-well plate: • 1). An aliquot of 40 μL unknown sample, calibration standard, quality control and dilution quality control (if have), single blank, and double blank sample was added to the 96-well plate respectively; • 2). Each sample (except the double blank) was quenched with 400 μL of IS1 respectively (double blank sample was quenched with 400 μL of I), and then the mixture was vortex-mixed for 10 min at 800 rpm and centrifuged for 15 min at 3220×g, 4° C.; • 3). An aliquot of 50 μL supernatant was transferred to another clean 96-well plate and centrifuged for 5 min at 3220×g, 4° C., then the supernatant was directly injected for LC-MS/MS analysis.
• 1. A LC-MS/MS method for the quantitative determination of test compound in biological matrix was developed under Non-GLP compliance. • 2. A calibration curve with at least 6 non-zero calibration standards was applied for the method including LLOQ. • 3. A set of QCs consisting of low, middle, and high concentrations were applied for the method. • 4. N in 1 cassette LC-MS/MS method was developed for samples coming from different studies and the interference among all cassette analytes was evaluated during the method development. • 5. Cassette administration assay was performed if the mass difference (Δmass) among different analytes was more than 4 Da. In this case, interference evaluation was not necessary.
• 1. If sample number within a batch was ≤12, at least one set of standard curve separated with two parts through begin and end of the sequence, was included in the run, and QCs were not required. The recommended injection order was C8, C6, C4, C2, study samples, C7, C5, C3, C1. • 2. If sample number within a batch was >12, one standard curve and two sets of QCs with low, middle and high concentrations were applied for bioanalysis. Meanwhile, QCs number should be more than 5% of study sample number. • 3. Samples with the same types of matrix in different studies were quantified in one analysis run by using the developed N in 1 cassette LC-MS/MS method. • 4. […]

[2] = brain, read-out: Brain concentration
[3] = brain, read-out: Kp brain/plasma
[4] = plasma, read-out: Plasma concentration
[5] = testes, read-out: Kp testes/plasma
[6] = testes, read-out: Testes concentration

Structure (SMILES) | Caco-2: Efflux Ratio (Caco-2 cells) | Caco-2: Papp A-B (Caco-2 cells) | Brain concentration ([1]; time point 2 h) | Plasma concentration ([1]; time point 2 h) | Testes concentration ([1]; time point 2 h) | other results
Cc1ccc(-c2noc(C3CCC(F)C3)n2)cc1NC(=O)c1cnc2ccccn12 (racemic) [Compound I-319] | 0.83 | 16 10^−6 cm/s | – | – | – | –
O=C(Nc1cc(-c2noc([C@H]3C[C@@H]3F)n2)ccc1Br)c1cnc2ccccn12 [Compound I-340] | – | – | 3660 ng/g | 2230 ng/mL | 3010 ng/g | Kp brain/plasma ([1]; time point 2 h): 1.64; Kp testes/plasma ([1]; time point 2 h): 1.35
Cc1ccc(-c2noc(C3CCC3F)n2)cc1NC(=O)c1cnc2ccccn12 (racemic) [Compound I-376] | 0.85 | 19.5 10^−6 cm/s | – | – | – | –
Cc1ccc(-c2noc(C3CC(C)(F)C3)n2)cc1NC(=O)c1cnc2ccccn12 (centres unmarked) [Compound I-387] | 0.77 | 14.5 10^−6 cm/s | – | – | – | –
CNC(=O)N1CC(c2nc(-c3ccc(C)c(NC(=O)c4cnc5ccccn45)c3)no2)C1 [Compound I-282] | 152 | 0.14 10^−6 cm/s | – | – | – | –
Cc1ccc(-c2noc(C(C)NS(C)(=O)=O)n2)cc1NC(=O)c1cnc2ccccn12 (single isomer, unassigned) [Compound I-238] | – | – | 0 ng/g | 791 ng/mL | 131 ng/g | Kp testes/plasma ([1]; time point 2 h): 0.17
Cc1cc(C)cc(Nc2ccc3ncc(C(=O)Nc4cc(-c5noc([C@H]6C[C@@H]6F)n5)ccc4C)n3c2)c1 [Compound I-299] | – | – | 101 ng/g | 216 ng/mL | 198 ng/g | Kp brain/plasma ([1]; time point 2 h): 0.47; Kp testes/plasma ([1]; time point 2 h): 0.92
CCCS(=O)(=O)N1CC(c2nc(-c3ccc(Cl)c(NC(=O)c4cnc5ccccn45)c3)no2)C1 [Compound I-220] | 0.25 | 16.5 10^−6 cm/s | – | – | – | –
Cc1ccc(-c2noc([C@H]3C[C@@H]3F)n2)cc1NC(=O)c1cnc2cc(COCC(C)(C)O)ccn12 [Compound I-71, N-[5-[5-[(1R,2S)-2-fluorocyclopropyl]-1,2,4-oxadiazol-3-yl]-2-methyl-phenyl]-7-[(2-hydroxy-2-methyl-propoxy)methyl]imidazo[1,2-a]pyridine-3-carboxamide] | – | – | – | – | – | concentration at 0.5 h [1, 2]: 91.8 ng/g; Kp at 0.5 h [1, 3]: 0.05; concentration at 2 h ([1]; brain, time point 2 h, read-out: Brain concentration): 169 ng/g; Kp at 2 h ([1]; brain, time point 2 h, read-out: Kp brain/plasma): 0.05; concentration at 7 h [1, 2]: 126 ng/g; Kp at 7 h [1, 3]: 0.03; concentration at 0.5 h [1, 4]: 1810 ng/mL; concentration at 2 h ([1]; plasma, time point 2 h, read-out: Plasma concentration): 3420 ng/mL; concentration at 7 h [1, 4]: 4110 ng/mL; Kp at 0.5 h [1, 5]: 0.09; concentration at 0.5 h [1, 6]: 166 ng/g; Kp at 2 h ([1]; testes, time point 2 h, read-out: Kp testes/plasma): 0.19; concentration at 2 h ([1]; testes, time point 2 h, read-out: Testes concentration): 653 ng/g; Kp at 7 h [1, 5]: 0.18; concentration at 7 h [1, 6]: 739 ng/g; brain penetration as indicated by Kp (Cbrain/Cplasma) ([1]; result in words): do not significantly penetrate the brain or minimally penetrate the brain
Cc1ccc(-c2noc(C3CCN3)n2)cc1NC(=O)c1cnc2ccccn12 (racemic) [Compound I-394] | 3.48 | 6.31 10^−6 cm/s | – | – | – | –
Cc1ccc(-c2noc(C(C)O)n2)cc1NC(=O)c1cnc2ccccn12 (racemic) [Compound I-364] | 3.09 | 8.39 10^−6 cm/s | – | – | – | –
Cc1nc(-c2ccc(Cl)c(NC(=O)c3cnc4ccccn34)c2)no1 [Compound I-172] | 0.49 | 12.9 10^−6 cm/s | – | – | – | –
Cc1ccc(-c2noc(CCO)n2)cc1NC(=O)c1cnc2ccccn12 [Compound I-306] | 3.66 | 7.03 10^−6 cm/s | – | – | – | –
Cc1ccc(-c2noc(CC(=O)O)n2)cc1NC(=O)c1cnc2ccccn12 [Compound I-335] | – | – | 0 ng/g | 16.7 ng/mL | 0 ng/g | –
O=C(Nc1cc(-c2noc([C@H]3C[C@@H]3F)n2)ccc1Cl)c1cnc2ccccn12 [Compound I-341] | 0.56 | 16.2 10^−6 cm/s | – | – | – | –
Cc1ccc(-c2noc(C3CN(C(=O)CO)C3)n2)cc1NC(=O)c1cnc2ccccn12 [Compound I-287] | 135 | 0.13 10^−6 cm/s | – | – | – | –
Cc1ccc(-c2noc(C3COC3)n2)cc1NC(=O)c1cnc2ccccn12 [Compound I-138] | 1.42 | 16.6 10^−6 cm/s | – | – | – | –
COc1ccn2c(C(=O)Nc3cc(-c4noc(CC(O)C(F)F)n4)ccc3C)cnc2c1 (single isomer, unassigned) [Compound I-76] | – | – | – | – | – | Brain concentration ([1]; time point 3 h): 55.9 ng/g; Kp brain/plasma ([1]; time point 3 h): 0.09; Kp testes/plasma ([1]; time point 3 h): 0.41; Plasma concentration ([1]; time point 3 h): 598 ng/mL; Testes concentration ([1]; time point 3 h): 246 ng/g
Cc1ccc(-c2noc([C@H]3C[C@@H]3F)n2)cc1NC(=O)c1cnc2cc(N3CCC3)ccn12 [Compound I-295] | – | – | 377 ng/g | 2080 ng/mL | 1020 ng/g | Kp brain/plasma ([1]; time point 2 h): 0.18; Kp testes/plasma ([1]; time point 2 h): 0.49
Cc1ccc(-c2noc(C3CCS(=O)(=O)N3)n2)cc1NC(=O)c1cnc2ccccn12 (racemic) [Compound I-330] | – | – | 0 ng/g | 117 ng/mL | 100 ng/g | Kp testes/plasma ([1]; time point 2 h): 0.86
